Measured values as given in ChEMBL document CHEMBL4811281, “Identification of aryl sulfonamides as novel and potent inhibitors of NaV1.5” (Bioorg Med Chem Lett, 2021).
pIC50, pKi: −log10 of the molar value.

Tests used:
[1] = Ratio of drug level in brain to plasma in FVB mouse at 10 mg/kg, po measured after 2 hrs; format: ADME, organism-based; details: read-out: BPR
[2] = molecular target: Voltage-gated potassium channel, IKs; KCNQ1(Kv7.1)/KCNE1(MinK) (Homo sapiens, UniProt P51787+P15382); assay: Inhibition of KvLQT1/mink (unknown origin) by voltage clamp method; format: protein-complex assay
[3] = Half life in FVB mouse at 10 mg/kg, po; format: ADME, organism-based; details: in vivo
[4] = molecular target: T1, Sodium channel protein type 5 subunit alpha (Homo sapiens, UniProt Q14524); assay: Inhibition of human Nav1.5 expressed in HEK293 cells assessed as inhibition of late channel current at holding potential of -95 mV; format: cell-based
Nav1.5 (SCN5A) = Nav1.5 (SCN5A) (Homo sapiens, UniProt Q14524); assay: State dependent inhibition of human Nav1.5 expressed in HEK293 cells assessed as shift in compound IC50 at rested state at membrane potential of -120 mV relative to partially inactivated state at membrane potential of -95 mV; format: cell-based; details: HEK293 cells that express human Nav1.5, read-out: FC
[5] = AUC in FVB mouse at 10 mg/kg, po; format: ADME, organism-based; set-up: dose 10 mg/kg; details: in vivo
[6] = Anti-arrythmic activity in human iPSC-derived cardiomyocytes assessed as reduction in upstroke velocity dV/dt(Vmax) at 100 nM in presence of 15 to 30 nM ATX-II by current clamp analysis; format: functional; details: iPSC-CM
Cytochrome P450 2C9 = Cytochrome P450 2C9 (Homo sapiens, UniProt P11712); assay: Inhibition of CYP2C9 (unknown origin); format: ADME
[7] = molecular target: T2, Sodium channel protein type 1 subunit alpha (Homo sapiens, UniProt P35498); assay: Inhibition of human Nav1.1 by V1/2 protocol based analysis
[8] = molecular target: T3, Sodium channel protein type 2 subunit alpha (Homo sapiens, UniProt Q99250); assay: Inhibition of human Nav1.2 expressed in HEK293 cells by sodium influx assay; format: cell-based
Cytochrome P450 1A2 = Cytochrome P450 1A2 (Homo sapiens, UniProt P05177); assay: Inhibition of CYP1A2 (unknown origin); format: ADME
[9] = molecular target: T4, Sodium channel protein type 8 subunit alpha (Homo sapiens, UniProt Q9UQD0); assay: Inhibition of human Nav1.6 by whole cell voltage clamp analysis
hERG (KCNH2) = hERG (KCNH2) (Homo sapiens, UniProt Q12809); assay: Inhibition of human ERG at 10 uM by voltage clamp method
[10] = molecular target: T1, Sodium channel protein type 5 subunit alpha; assay: Displacement of [3H]BNZA from Nav1.5 (unknown origin)
[11] = molecular target: T1, Sodium channel protein type 5 subunit alpha; assay: Inhibition of human Nav1.5 by V1/2 protocol based analysis
[12] = molecular target: Sodium channel protein type 9 subunit alpha (Homo sapiens, UniProt Q15858); assay: Inhibition of human Nav1.7 expressed in HEK293 cells by sodium flux analysis; format: cell-based
[13] = molecular target: T4, Sodium channel protein type 8 subunit alpha; assay: Inhibition of human Nav1.6 by V1/2 protocol based analysis
[14] = Clearance in FVB mouse at 1 mg/kg, iv; format: ADME, organism-based; details: in vivo
[15] = molecular target: T3, Sodium channel protein type 2 subunit alpha; assay: Inhibition of human Nav1.2 by V1/2 protocol based analysis
[16] = molecular target: T1, Sodium channel protein type 5 subunit alpha; assay: Inhibition of human Nav1.5 expressed in HEK293 cells assessed as inhibition of peak channel current at holding potential of -95 mV; format: cell-based
[17] = molecular target: T2, Sodium channel protein type 1 subunit alpha; assay: Inhibition of human Nav1.1 expressed in HEK293 cells by sodium influx assay; format: cell-based
Cytochrome P450 3A4 = Cytochrome P450 3A4 (Homo sapiens, UniProt P08684); assay: Inhibition of CYP3A4 (unknown origin); format: ADME
[18] = Anti-arrythmic activity in human iPSC-derived cardiomyocytes assessed as shortening of ATX-II induced APD90 prolongation at 100 nM in presence of 15 to 30 nM ATX-II by current clamp analysis; format: functional; details: iPSC-CM
[19] = molecular target: T1, Sodium channel protein type 5 subunit alpha; assay: Inhibition of human Nav1.5 by automated voltage clamp electrophysiology
[20] = Cmax in FVB mouse at 10 mg/kg, po; format: ADME, organism-based; set-up: route oral, dose 10 mg/kg; details: in vivo
[21] = Half life in FVB mouse at 1 mg/kg, iv; format: ADME, organism-based; details: in vivo
Cytochrome P450 2C19 = Cytochrome P450 2C19 (Homo sapiens, UniProt P33261); assay: Inhibition of CYP2C19 (unknown origin); format: ADME
[22] = Oral bioavailability in FVB mouse at 10 mg/kg; format: ADME, organism-based; details: in vivo
[23] = Volume of distribution at steady state in FVB mouse at 1 mg/kg, iv; format: ADME, organism-based; details: in vivo, read-out: Vdss
[24] = molecular target: Voltage-dependent L-type calcium channel subunit alpha-1C (Homo sapiens, UniProt Q13936); assay: Inhibition of Cav1.2 (unknown origin) by voltage clamp assay
[25] = molecular target: T3, Sodium channel protein type 2 subunit alpha; assay: Inhibition of human Nav1.2 by whole cell voltage clamp analysis
[26] = molecular target: T4, Sodium channel protein type 8 subunit alpha; assay: Inhibition of human Nav1.6 expressed in HEK293 cells by sodium influx assay; format: cell-based
Cytochrome P450 2D6 = Cytochrome P450 2D6 (Homo sapiens, UniProt P10635); assay: Inhibition of CYP2D6 (unknown origin); format: ADME
[27] = AUC in FVB mouse at 1 mg/kg, iv; format: ADME, organism-based; set-up: dose 1 mg/kg; details: in vivo
[28] = molecular target: Kv channel-interacting protein 2/Potassium voltage-gated channel subfamily D member 3 (Homo sapiens, UniProt Q9UK17+Q9NS61); assay: Inhibition of Kv4.3/KChIP2.2 (unknown origin) by voltage clamp method; format: protein-complex assay
[29] = Drug uptake in FVB mouse brain at 10 mg/kg, po measured after 2 hrs; format: ADME, organism-based; details: read-out: Drug uptake
[30] = molecular target: T2, Sodium channel protein type 1 subunit alpha; assay: Inhibition of human Nav1.1 by whole cell voltage clamp analysis
[31] = molecular target: T1, Sodium channel protein type 5 subunit alpha; assay: Inhibition of human Nav1.5 expressed in HEK293 cells by sodium influx assay; format: cell-based
[32] = Plasma concentration in FVB mouse at 10 mg/kg, po measured after 2 hrs; format: ADME, organism-based

T1 sequence (Q14524 whole entry): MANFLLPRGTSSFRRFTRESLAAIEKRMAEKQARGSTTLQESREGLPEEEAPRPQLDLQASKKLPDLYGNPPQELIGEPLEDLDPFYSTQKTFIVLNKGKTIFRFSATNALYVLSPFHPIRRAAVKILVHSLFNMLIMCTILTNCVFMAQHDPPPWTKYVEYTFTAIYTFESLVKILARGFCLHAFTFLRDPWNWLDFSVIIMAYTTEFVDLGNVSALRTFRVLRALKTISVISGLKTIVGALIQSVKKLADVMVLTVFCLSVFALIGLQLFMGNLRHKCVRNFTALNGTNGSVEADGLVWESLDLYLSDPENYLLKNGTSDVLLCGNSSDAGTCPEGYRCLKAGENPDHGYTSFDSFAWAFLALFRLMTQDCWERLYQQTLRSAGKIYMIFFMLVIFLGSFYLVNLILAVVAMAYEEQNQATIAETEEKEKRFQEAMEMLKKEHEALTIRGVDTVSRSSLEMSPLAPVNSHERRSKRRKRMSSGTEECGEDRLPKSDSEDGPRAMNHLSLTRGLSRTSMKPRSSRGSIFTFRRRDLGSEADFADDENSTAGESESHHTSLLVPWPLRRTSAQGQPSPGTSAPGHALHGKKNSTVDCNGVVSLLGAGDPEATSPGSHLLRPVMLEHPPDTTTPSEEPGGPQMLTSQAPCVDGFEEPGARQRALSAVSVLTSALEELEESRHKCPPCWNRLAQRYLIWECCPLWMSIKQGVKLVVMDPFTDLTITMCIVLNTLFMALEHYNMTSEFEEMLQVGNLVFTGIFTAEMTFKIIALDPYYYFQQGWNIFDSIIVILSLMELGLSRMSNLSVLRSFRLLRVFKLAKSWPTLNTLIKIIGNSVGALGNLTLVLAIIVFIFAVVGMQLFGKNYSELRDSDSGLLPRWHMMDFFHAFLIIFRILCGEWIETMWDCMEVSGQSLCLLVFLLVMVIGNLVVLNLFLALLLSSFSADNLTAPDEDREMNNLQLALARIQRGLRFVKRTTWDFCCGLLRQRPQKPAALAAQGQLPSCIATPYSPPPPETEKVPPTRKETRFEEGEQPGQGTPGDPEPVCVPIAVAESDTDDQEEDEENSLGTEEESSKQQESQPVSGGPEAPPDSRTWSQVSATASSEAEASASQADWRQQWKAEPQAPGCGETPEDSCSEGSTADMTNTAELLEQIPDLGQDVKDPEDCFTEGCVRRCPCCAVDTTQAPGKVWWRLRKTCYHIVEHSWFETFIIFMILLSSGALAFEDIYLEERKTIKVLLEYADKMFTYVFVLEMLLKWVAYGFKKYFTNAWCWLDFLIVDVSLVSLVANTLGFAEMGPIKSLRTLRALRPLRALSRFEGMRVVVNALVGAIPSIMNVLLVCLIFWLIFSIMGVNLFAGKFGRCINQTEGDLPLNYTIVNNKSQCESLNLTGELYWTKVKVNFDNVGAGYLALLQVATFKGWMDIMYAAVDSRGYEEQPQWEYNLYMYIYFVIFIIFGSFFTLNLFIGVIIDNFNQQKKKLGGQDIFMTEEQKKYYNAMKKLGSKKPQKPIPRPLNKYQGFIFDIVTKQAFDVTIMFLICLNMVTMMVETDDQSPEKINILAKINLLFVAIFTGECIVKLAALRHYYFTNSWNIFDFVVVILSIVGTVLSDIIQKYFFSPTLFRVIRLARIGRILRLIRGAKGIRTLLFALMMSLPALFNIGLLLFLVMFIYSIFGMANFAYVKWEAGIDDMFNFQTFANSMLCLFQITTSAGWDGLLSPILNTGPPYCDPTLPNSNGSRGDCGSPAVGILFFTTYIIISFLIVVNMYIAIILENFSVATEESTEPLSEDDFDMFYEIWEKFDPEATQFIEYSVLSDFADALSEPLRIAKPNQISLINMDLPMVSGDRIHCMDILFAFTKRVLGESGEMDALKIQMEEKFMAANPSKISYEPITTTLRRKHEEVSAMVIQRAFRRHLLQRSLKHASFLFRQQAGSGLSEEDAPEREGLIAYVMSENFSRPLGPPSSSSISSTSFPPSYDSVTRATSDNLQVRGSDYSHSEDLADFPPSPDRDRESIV
T4 sequence (Q9UQD0 whole entry): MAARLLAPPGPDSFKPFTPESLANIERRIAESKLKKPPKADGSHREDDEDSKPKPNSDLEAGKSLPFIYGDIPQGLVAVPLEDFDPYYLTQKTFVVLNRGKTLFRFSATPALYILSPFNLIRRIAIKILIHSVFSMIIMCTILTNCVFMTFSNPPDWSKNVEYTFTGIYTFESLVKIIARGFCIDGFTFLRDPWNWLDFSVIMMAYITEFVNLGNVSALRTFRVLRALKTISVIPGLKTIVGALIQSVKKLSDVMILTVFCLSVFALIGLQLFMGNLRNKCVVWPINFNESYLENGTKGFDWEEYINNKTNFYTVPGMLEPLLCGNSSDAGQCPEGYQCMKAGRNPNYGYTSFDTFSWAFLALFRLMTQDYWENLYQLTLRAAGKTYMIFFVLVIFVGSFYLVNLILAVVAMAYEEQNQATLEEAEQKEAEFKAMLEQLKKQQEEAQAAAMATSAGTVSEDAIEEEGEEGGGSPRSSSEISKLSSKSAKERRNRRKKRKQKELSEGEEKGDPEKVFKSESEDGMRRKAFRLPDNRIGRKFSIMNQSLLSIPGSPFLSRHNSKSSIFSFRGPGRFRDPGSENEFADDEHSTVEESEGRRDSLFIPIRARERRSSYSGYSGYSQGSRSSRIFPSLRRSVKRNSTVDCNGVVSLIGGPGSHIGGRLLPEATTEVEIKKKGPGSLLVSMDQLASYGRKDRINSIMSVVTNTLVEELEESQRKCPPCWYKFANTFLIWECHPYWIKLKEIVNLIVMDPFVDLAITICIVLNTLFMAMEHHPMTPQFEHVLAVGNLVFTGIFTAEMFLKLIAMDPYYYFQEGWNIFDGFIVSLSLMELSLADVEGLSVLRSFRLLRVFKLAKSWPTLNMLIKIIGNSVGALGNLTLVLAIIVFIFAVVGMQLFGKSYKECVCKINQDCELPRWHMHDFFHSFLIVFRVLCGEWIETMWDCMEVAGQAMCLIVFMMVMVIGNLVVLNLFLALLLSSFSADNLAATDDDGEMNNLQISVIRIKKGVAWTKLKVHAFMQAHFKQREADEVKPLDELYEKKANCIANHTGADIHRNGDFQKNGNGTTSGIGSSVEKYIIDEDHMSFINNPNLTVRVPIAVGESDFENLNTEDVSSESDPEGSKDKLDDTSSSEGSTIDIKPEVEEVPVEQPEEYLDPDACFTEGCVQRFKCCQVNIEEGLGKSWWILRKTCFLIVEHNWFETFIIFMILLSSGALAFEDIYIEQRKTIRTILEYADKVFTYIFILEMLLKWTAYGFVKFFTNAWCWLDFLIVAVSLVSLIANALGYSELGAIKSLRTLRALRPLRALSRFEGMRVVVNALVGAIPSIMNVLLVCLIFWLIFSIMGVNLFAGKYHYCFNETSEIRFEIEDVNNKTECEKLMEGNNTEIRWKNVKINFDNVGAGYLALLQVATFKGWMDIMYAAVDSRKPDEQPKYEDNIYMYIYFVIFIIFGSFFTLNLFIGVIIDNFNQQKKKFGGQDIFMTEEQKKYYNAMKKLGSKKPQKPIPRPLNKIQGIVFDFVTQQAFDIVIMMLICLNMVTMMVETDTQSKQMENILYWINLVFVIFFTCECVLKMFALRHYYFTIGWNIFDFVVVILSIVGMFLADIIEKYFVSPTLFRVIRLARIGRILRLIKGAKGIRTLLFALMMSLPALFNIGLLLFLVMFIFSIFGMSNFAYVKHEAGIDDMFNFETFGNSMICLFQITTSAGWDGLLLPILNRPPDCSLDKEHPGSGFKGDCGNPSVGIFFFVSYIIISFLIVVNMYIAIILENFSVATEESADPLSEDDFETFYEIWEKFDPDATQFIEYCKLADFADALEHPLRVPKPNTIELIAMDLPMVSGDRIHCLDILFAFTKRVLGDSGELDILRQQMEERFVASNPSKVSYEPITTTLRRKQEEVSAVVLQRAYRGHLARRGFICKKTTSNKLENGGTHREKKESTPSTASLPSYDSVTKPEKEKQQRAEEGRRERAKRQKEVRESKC
Chain of Kv channel-interacting protein 2/Potassium voltage-gated channel subfamily D member 3 (Q9UK17 whole entry): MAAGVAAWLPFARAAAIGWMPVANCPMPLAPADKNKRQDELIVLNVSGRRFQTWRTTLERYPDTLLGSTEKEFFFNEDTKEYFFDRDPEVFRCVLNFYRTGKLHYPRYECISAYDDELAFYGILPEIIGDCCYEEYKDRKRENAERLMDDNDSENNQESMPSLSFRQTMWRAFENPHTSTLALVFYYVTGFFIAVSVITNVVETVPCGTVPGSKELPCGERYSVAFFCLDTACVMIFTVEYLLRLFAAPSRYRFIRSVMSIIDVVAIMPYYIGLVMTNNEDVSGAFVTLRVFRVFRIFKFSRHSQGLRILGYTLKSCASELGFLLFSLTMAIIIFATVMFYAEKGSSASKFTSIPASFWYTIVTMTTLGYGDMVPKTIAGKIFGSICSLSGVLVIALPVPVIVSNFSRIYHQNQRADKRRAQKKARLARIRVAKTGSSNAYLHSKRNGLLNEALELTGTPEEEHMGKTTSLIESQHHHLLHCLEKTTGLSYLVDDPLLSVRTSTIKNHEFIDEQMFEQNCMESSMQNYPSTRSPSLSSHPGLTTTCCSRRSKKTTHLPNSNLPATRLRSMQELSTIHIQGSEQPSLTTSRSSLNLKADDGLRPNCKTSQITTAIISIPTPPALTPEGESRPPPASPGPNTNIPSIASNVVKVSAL
Chain of Kv channel-interacting protein 2/Potassium voltage-gated channel subfamily D member 3 (Q9NS61 whole entry): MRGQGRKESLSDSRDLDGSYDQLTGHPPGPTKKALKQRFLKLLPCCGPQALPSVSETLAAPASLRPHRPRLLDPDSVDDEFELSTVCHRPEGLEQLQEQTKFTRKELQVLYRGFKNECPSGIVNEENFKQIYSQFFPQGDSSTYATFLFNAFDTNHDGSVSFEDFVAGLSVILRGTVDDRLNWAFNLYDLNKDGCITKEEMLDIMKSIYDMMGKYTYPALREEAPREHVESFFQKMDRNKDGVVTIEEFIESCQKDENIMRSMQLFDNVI

Kp at 2 h [1]: 0.32
inhibition (INH) [2]: Not Active
half-life [3]: 2.7 h
AUC [5]: 30 µM·h
pIC50 (Cytochrome P450 2C9): 5.66
pIC50 [7]: 7.05
pIC50 [8]: 6.57
inhibition (INH) (Cytochrome P450 1A2): Not Active
pIC50 [9]: 6.64
pIC50 [12]: 6.66
pIC50 [13]: 6.96
clearance [14]: 3.8 mL/min/kg
pIC50 [15]: 7.92
pIC50 [17]: 6.25
inhibition (INH) (Cytochrome P450 3A4): Not Active
Cmax [20]: 3.6 µM
half-life [21]: 2.6 h
inhibition (INH) (Cytochrome P450 2C19): Not Active
bioavailability [22]: 39%
Vd [23]: 0.8 L/kg
pIC50 [25]: 6.57
pIC50 [26]: 6.96
inhibition (INH) (Cytochrome P450 2D6): Not Active
AUC [27]: 7.6 µM·h
inhibition (INH) [28]: Not Active
concentration at 2 h [29]: 2.03 µM
pIC50 [30]: 6.21
concentration at 2 h [32]: 6.44 µM
Compound: O=S(=O)(Nc1cccc(F)n1)c1cc(F)c(O[C@H]2CCN(CC(F)(F)F)C[C@@H]2c2ccc(F)c(F)c2)c(F)c1 (stereo in doubt; (-)-6)
pIC50 [4]: 7.80
selectivity ratio (Nav1.5 (SCN5A)): 24
inhibition at 0.1 µM [6]: 23%
inhibition at 10 µM (hERG (KCNH2)): 5%
pKi [10]: 6.43
pIC50 [11]: 6.96
pIC50 [16]: 7.75
inhibition at 0.1 µM [18]: 84%
pIC50 [19]: 7.41
inhibition (INH) [24]: Not Active
pIC50 [31]: 7.36
